According to publication PMC6940354, “Comparative Assessment of the New PDE7 Inhibitor – GRMS-55 and Lisofylline in Animal Models of Immune-Related Disorders: A PK/PD Modeling Approach” (Pharmaceutical Research, 2020):
Several values for one entry are separate records, joined by “and”; a condition that tells them apart may be missing. Equal values may be shown once.

Key:
[1] = Pharmacokinetics in male Wistar rats; format: in vivo, rat; conditions: for half-life: male rats (Wistar), IV, read-out: elimination half-life
Protocol: (§1) The same vehicles as these in pharmacodynamic studies for each compound and route of administration were used. Rats were implanted with catheters into the jugular vein and after a two-day period they were administered with the investigated compounds by the listed above routes of administration. […] Samples were subsequently centrifuged at 3000 × g for 10 min. Plasma was stored at −80°C until analysis.
(§2) A detailed description of these methods has been provided in the supplementary materials.
(§3) Firstly, the concentration-time data collected for each individual compound from one of the investigated rat strains (Wistar or Lewis) were subjected to a non-compartmental analysis (NCA). Subsequently, pharmacokinetic models were developed for each investigated compound and strain of rat. One- and two- compartment models with linear or non-linear elimination were tested. […] The final models were chosen based on the goodness-of-fit criteria, such as Akaike Information Criterion (AIC), Schwarz Bayesian Criterion (SBC), weighted sum of squared residuals (WSSR), a visual inspection of fitting, and precision of estimated parameters expressed as coefficients of variation % (CVs%). NCA analysis was performed in Phoenix WinNonlin v. 7.0 (Pharsight Corp., a Certara Company, Princeton, New Jersey). Pharmacokinetic model parameters were estimated in ADAPT 5 software (BMSR, Los Angeles, CA) using the weighted least squares algorithm. Fraction of the dose absorbed (F) following an extravascular (EV) administration was calculated according to the Eq. 4:4 F=AUC0−tEV·DIV/AUC0−tIV·DEV where AUC0-t is the area under concentration versus time curve from 0 to the last measured point and D is dose.
PK/PD and PK/PD/DIS progression models were developed considering the mechanism of action of the investigated compounds, the mechanisms of disease progression in the case of CIA, and the subsequent stages leading to TNF-α release in the case of LPS-induced endotoxemia. Various numbers of transit compartments were tested during development of the models, and the final models were chosen based on the goodness-of-fit criteria, such as AIC, SBC, a visual inspection of the fitting, and parameter precision. Estimated values of pharmacokinetic parameters were fixed during PK/PD and PK/PD/DIS progression model fitting procedures. […] PK/PD and PK/PD/DIS progression modeling were performed in ADAPT 5 software using the weighted least squares algorithm.
The applied model is a modified indirect response model ([19]) with implemented transit compartments (T1-T4) that describe the delay of the observed pharmacodynamic response. In this scheme τ is the mean transit time, kin is the time limited (from 0 to tlag) zero-order rate constant of production of a TNF-α precursor (e.g., TNF-α mRNA). […]

[2] = Pharmacokinetics in female Lewis rats; format: in vivo, rat; conditions: for fraction of the dose absorbed (F): calculated from Eq. 4
Protocol: as §1, §2, §3
The route of (±)-LSF administration was selected based on the results of our recent study, where SC route of administration was recognized as the most preferential for this compound ([20]). The concentration-time data for each of the investigated compounds were simultaneously fitted to obtain a single set of pharmacokinetic parameters.
The remaining symbols and parameters have been explained and defined in Fig. 2 and Table II.
Then, the samples were extracted with 1 mL of dichloromethane for 20 min using a VXR Vibrax shaker (IKA, Germany). Subsequently, all tubes were centrifuged (10 000×g, 8 min) using EBA 12 R centrifuge (Hettich, Germany). Organic layers were collected and transferred to clear propylene tubes and evaporated in water bath under a gentle stream of nitrogen at 37°C. Dry residues were then dissolved in 100 μL of mobile phase and subjected to the HPLC analysis. The HPLC system (LaChrom Elite, Merck-Hitachi, Germany) consisted of an L-2130 pump, an L-2200 autosampler, and an L-2420 UV-VIS detector. EZChrome Elite v. 3.2 (Merck-Hitachi, Germany) computer program was used for data acquisition and integration. The separation of GRMS-55 was performed using a LiChrospher 100 RP-18 (250×4 mm) column with a particle size of 5 μm protected with a LiChroCART (4×4 mm, RP-18) guard column (Merck, Germany). […] The separation of both investigated compounds was performed at ambient temperature. […] In turn, the retention time of GRMS-55 was 9.2 min. and that of its IS was 5.3 min.

hrPDE4B = biological target: T1, hrPDE4B (Homo sapiens, UniProt Q07343); assay: PDE-Glo Phosphodiesterase Assay, hrPDE4B; format: biochemical; conditions: for hrPDE4B inhibitory activity, times weaker than rolipram: ratio to the reference compound rolipram
T1 construct: purchased SignalChem, Richmond, Canada
Protocol: (§4) Inhibitory activity of the investigated and reference compounds against various subtypes of PDEs was analyzed using the PDE-Glo Phosphodiesterase Assay following the manufacturer’s instruction (Promega Corp., USA). […] The values of IC50, Imax, and γ parameters of the investigated and reference compounds were estimated using non-linear regression in Phoenix WinNonlin v. […] Each sample was performed in quadruplicate and the relative activity of each sample was calculated as E=sample activity/control activity·100% .
One and a half μL aliquots of PDE-Glo reaction buffer containing appropriate amounts of human recombinant PDE (hrPDE) 1B, 2A, 3A, 4B, 4D, 5A, 7A, or 10A (SignalChem, Richmond, Canada) were placed into separate wells of a 384-well plate (Thermo Scientific, USA). The investigated compounds were initially dissolved in DMSO and then a serial dilution with DMSO was performed. Each dilution was mixed with PDE-Glo reaction buffer at a ratio of 1:5 (v/v). Then, 1 μL of the solution containing a PDE inhibitor and 2.5 μL of the substrate solution were added to each well. cGMP was used as a substrate in the case of hrPDE2A and hrPDE5A, while cAMP for other types of hrPDEs. The samples were incubated for 10 min at 30°C. Subsequently, 2.5 μL volumes of PDE-Glo Termination Buffer and PDE-Glo Detection Solution were added to each well and after 20 min of incubation at room temperature, 10 μL of Kinase-Glo Reagent was added to each well. The luminescence of each sample was measured by a microplate reader POLARstar Omega (BMG LABTECH, Germany).

hrPDE3A = hrPDE3A (Homo sapiens, UniProt Q14432); assay: PDE-Glo Phosphodiesterase Assay, hrPDE3A
Protocol: as §4
(§5) One and a half μL aliquots of PDE-Glo reaction buffer containing appropriate amounts of human recombinant PDE (hrPDE) 1B, 2A, 3A, 4B, 4D, 5A, 7A, or 10A (SignalChem, Richmond, Canada) were placed into separate wells of a 384-well plate (Thermo Scientific, USA). The investigated compounds were initially dissolved in DMSO and then a serial dilution with DMSO was performed. Each dilution was mixed with PDE-Glo reaction buffer at a ratio of 1:5 (v/v). Then, 1 μL of the solution containing a PDE inhibitor and 2.5 μL of the substrate solution were added to each well. cGMP was used as a substrate in the case of hrPDE2A and hrPDE5A, while cAMP for other types of hrPDEs. The samples were incubated for 10 min at 30°C. […] The luminescence of each sample was measured by a microplate reader POLARstar Omega (BMG LABTECH, Germany).

hrPDE1B = biological target: T2, hrPDE1B (Homo sapiens, UniProt Q01064); assay: PDE-Glo Phosphodiesterase Assay, hrPDE1B; format: biochemical; conditions: cAMP substrate, read-out: IC50 PDE1B, Estimate (CV%)
T2 construct: purchased SignalChem, Richmond, Canada
Protocol: as §4, §5

hrPDE2A = biological target: T3, hrPDE2A (Homo sapiens, UniProt O00408); assay: PDE-Glo Phosphodiesterase Assay, hrPDE2A; format: biochemical; conditions: cGMP substrate, read-out: IC50 PDE2A, Estimate (CV%)
T3 construct: purchased SignalChem, Richmond, Canada
Protocol: as §4, §5

hrPDE4D = hrPDE4D (Homo sapiens, UniProt Q08499); assay: PDE-Glo Phosphodiesterase Assay, hrPDE4D
Protocol: as §4, §5

hrPDE5A = hrPDE5A (Homo sapiens, UniProt O76074); assay: PDE-Glo Phosphodiesterase Assay, hrPDE5A
Protocol: as §4, §5

hrPDE10A = hrPDE10A (Homo sapiens, UniProt Q9Y233); assay: PDE-Glo Phosphodiesterase Assay, hrPDE10A
Protocol: as §4, §5

[3] = rat, plasma, other: GRMS-55 IV and IP, rolipram IP, female Lewis rats, read-out: half-life calculated as ln2·V1/Clt (elimination half-life)

T1 sequence (Q07343 whole entry): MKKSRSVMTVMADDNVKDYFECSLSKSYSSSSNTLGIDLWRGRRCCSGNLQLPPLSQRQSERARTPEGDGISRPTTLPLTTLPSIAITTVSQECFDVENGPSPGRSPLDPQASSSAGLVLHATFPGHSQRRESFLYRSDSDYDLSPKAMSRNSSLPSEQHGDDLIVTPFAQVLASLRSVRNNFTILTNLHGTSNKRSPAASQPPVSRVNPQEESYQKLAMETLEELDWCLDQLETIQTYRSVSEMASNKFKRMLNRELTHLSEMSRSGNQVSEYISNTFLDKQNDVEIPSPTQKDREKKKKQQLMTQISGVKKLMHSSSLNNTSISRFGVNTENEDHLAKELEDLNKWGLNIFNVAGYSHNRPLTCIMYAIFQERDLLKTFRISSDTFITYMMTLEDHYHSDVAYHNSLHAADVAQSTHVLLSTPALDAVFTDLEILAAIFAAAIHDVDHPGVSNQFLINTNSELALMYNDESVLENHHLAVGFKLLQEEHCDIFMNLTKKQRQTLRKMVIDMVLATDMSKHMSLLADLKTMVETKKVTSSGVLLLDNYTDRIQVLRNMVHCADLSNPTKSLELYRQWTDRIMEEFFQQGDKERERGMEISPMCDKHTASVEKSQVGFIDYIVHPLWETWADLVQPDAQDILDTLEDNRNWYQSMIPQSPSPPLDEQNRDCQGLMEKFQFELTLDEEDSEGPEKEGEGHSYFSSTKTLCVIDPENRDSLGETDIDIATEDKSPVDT
T3 sequence (O00408 whole entry): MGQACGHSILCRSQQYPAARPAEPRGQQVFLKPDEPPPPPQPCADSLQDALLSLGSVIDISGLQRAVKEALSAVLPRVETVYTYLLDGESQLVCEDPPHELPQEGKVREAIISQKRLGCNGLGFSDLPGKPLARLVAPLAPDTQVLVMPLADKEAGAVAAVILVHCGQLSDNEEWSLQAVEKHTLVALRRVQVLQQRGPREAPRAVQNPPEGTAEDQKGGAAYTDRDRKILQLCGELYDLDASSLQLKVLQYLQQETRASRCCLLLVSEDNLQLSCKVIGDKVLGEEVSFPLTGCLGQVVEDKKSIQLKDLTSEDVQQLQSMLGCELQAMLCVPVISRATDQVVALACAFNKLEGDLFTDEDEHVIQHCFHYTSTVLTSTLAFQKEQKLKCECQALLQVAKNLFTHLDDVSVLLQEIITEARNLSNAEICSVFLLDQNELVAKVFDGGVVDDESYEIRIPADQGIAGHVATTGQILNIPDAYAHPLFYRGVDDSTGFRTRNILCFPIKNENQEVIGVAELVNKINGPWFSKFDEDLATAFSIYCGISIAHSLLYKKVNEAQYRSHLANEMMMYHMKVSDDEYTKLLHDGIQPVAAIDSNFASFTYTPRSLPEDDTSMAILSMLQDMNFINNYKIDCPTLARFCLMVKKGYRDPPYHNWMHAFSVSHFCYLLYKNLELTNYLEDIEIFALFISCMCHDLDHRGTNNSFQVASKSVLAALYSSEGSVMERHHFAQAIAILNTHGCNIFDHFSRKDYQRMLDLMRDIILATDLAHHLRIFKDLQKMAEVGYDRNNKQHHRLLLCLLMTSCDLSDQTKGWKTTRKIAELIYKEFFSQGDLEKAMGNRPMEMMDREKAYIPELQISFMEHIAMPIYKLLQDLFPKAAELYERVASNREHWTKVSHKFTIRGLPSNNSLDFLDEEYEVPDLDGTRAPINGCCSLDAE
hrPDE10A, sequence (Q9Y233 whole entry): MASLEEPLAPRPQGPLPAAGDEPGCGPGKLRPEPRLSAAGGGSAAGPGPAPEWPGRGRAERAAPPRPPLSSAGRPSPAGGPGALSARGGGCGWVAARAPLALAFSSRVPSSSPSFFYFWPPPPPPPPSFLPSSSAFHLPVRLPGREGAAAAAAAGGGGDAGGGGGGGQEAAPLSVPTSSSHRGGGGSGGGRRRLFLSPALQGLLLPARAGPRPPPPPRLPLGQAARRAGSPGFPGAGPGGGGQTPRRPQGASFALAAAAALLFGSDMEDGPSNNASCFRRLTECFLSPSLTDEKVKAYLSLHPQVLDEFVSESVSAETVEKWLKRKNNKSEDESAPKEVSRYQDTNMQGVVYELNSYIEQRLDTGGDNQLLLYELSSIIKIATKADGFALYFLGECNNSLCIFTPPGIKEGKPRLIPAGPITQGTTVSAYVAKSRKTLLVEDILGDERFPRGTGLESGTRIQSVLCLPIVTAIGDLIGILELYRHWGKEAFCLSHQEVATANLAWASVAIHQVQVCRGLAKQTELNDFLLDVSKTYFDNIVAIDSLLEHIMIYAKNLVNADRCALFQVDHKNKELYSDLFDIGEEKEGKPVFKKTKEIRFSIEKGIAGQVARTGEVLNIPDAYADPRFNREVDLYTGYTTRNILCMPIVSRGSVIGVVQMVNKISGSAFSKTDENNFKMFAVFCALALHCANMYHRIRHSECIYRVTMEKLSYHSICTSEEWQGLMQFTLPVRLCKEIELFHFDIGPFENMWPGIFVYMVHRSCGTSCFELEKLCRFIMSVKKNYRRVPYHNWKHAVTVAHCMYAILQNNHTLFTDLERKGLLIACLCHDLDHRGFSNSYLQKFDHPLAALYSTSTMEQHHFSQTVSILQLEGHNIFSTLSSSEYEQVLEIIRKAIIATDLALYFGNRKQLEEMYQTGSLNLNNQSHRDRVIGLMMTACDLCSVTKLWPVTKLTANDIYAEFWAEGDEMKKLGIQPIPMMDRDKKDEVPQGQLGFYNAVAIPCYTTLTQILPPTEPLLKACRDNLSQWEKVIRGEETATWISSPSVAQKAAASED
hrPDE4D, sequence (Q08499 whole entry): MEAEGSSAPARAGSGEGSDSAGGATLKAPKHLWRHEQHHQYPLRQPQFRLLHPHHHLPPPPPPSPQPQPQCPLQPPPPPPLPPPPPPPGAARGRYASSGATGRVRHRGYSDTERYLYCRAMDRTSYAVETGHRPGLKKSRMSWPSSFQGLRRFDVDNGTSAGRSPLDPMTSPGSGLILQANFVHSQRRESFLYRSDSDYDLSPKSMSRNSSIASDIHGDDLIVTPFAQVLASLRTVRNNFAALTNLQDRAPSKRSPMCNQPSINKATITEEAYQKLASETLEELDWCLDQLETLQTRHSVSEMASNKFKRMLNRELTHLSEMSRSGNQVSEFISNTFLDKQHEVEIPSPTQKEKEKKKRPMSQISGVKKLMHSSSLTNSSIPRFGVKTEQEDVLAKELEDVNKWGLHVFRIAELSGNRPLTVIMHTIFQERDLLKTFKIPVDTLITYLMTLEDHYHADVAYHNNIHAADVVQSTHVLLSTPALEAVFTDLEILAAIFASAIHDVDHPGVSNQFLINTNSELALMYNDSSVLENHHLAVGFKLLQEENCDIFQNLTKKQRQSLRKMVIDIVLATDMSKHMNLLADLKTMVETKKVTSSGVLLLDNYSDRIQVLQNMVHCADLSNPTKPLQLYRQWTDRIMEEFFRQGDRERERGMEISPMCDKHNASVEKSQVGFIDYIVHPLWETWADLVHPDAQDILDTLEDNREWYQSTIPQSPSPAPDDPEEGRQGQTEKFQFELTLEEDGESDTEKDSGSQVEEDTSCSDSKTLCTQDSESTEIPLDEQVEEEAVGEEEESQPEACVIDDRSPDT
T2 sequence (Q01064 whole entry): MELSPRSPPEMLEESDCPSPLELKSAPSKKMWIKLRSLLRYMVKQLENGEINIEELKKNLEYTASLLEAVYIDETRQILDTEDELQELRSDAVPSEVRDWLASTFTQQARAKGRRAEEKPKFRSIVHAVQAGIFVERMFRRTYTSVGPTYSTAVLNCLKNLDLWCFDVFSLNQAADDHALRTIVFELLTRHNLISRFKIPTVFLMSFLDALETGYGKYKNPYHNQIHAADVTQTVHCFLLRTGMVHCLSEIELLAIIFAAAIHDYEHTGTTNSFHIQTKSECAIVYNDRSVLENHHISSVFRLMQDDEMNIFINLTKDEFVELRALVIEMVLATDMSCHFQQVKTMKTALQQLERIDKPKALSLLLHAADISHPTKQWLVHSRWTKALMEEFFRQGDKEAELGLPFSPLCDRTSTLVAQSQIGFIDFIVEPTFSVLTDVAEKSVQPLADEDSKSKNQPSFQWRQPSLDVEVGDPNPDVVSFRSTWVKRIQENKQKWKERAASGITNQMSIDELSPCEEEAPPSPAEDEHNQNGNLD

SMILES	half-life ([1]; rat, plasma)	Vd/F ([2]; female, Lewis, rat, plasma, ip, 10 mg/kg, read-out: V(ROL)/F, volume of distribution divided by fraction absorbed, Estimate (CV%))	half-life [2, 3]	fraction of the dose absorbed (F) ([2]; female Lewis rats, SC administration)	volume of distribution, times lower in female Lewis rats compared to male Wistar rats ([2]; female Lewis vs male Wistar rats)	half-life ([2]; rat, plasma, 80 mg kg^-1, female Lewis rats, SC administration, flip-flop pharmacokinetics, read-out: plasma terminal half-life)	Vd ([2]; rat, plasma, other: IV and SC, female Lewis rats, (±)-LSF IV 40 and SC 80 mg kg^−1, read-out: VLSF, volume of distribution of (±)-LSF, Estimate (CV%))	k el ([2]; rat, plasma, other: IV and SC, female Lewis rats, (±)-LSF IV and SC, read-out: kd, overall parent elimination rate constant, Estimate (CV%) (converted))	IC50 (hrPDE4B; hrPDE4B, cAMP substrate, read-out: IC50 PDE4B, Estimate (CV%))	hrPDE4B inhibitory activity, times weaker than rolipram (hrPDE4B)	IC50 (hrPDE3A)	IC50 (hrPDE1B)	IC50 (hrPDE2A)	IC50 (hrPDE4D)	IC50 (hrPDE5A)	IC50 (hrPDE10A)	elimination rate constant, times lower than that of rolipram ([1]; compared to rolipram)	Vd ([1]; rat, plasma, male Wistar rats, GRMS-55 IV 20 mg kg^−1, 1-compartment model, read-out: V(GRMS-55), volume of distribution, Estimate (CV%))	fraction of the dose absorbed (F) ([2]; female Lewis rats, IP administration)	PDE4B inhibitory potency of GRMS-55 relative to (±)-LSF (hrPDE4B; GRMS-55 more potent than (±)-LSF in vitro)
COc1ccc(C2CNC(=O)C2)cc1OC1CCCC1 (centres unmarked) [Rolipram, rolipram]	11 min	1.02 L/kg	30 min																	
CC(O)CCCCn1c(=O)c2c(ncn2C)n(C)c1=O (racemic) [(±)-LSF, lisofylline]				95%	3.3 times	23 min	0.37 L/kg	0.00353 s⁻¹	50.8 µM	45 times	73.4 µM	12.9 µM	91.6 µM	> 200 µM	> 100 µM	> 100 µM				
Cn1c(=O)c2c(nc(NCCc3ccccc3)n2CCCC(=O)NN=Cc2ccccc2O)n(C)c1=O [GRMS-55, 4-(1,3-Dimethyl-2,6-dioxo-8-(phenethylamino)-2,3,6,7-tetrahydro-1H-purin-7-yl)-N′-(2-hydroxybenzylidene)butanehydrazide]	22 min		21 min							24 times	13.4 µM	2.5 µM	> 100 µM	> 200 µM	> 100 µM	23.3 µM	approx. 2 times	1.59 L/kg	23%	~ 2 times and ~ 2.0 times
